The values below come from US10059689B2, “Substituted heteroaryl compounds and methods of use” (Sunshine Lake Pharma Co., Ltd., priority 2014, dated 2018).

What is called IC50 is the midpoint of a concentration-inhibition curve. As usually defined, the AUC(0-t) is the area under the concentration-time curve up to a stated or last time point. A higher AUC(0-t) goes with high exposure. In general, CLint scaled refers to the rate of metabolic loss divided by the concentration.

The target in one data set is T1, JAK2 (h) (Homo sapiens, UniProt O60674).
T1 construct: purchased Millipore UK Ltd (contract assay service)
In words: JAK2 (h) kinase assay. The class given is biochemical. As to the method:
(§1) The above assay procedure can be used to determine the IC50 for inhibition and/or the inhibition constant, Ki. The IC50 is defined as the concentration of compound required to reduce the enzyme activity by 50% under the condition of the assay. The IC50 value is estimated by preparing a 10 point curve using a ½ log dilution series (for example, a typical curve may be prepared using the following compound concentrations: 3 μM, 1 μM, 0.3 μM, 0.1 μM, 0.03 μM, 0.01 μM, 0.003 μM, 0.001 μM, 0.0003 μM and 0 μM).
JAK2 (h) is incubated with 8 mM MOPS pH 7.0, 0.2 mM EDTA, 100 μM […], 10 mM MgAcetate and [γ-^33P-ATP] (specific activity approx. 500 cpm/pmol, concentration as required). The reaction is initiated by the addition of the MgATP mix. After incubation for 40 minutes at room temperature, the reaction is stopped by the addition of 3% phosphoric acid solution. 10 μL of the reaction is then spotted onto a P30 filtermat and washed three times for 5 minutes in 75 mM phosphoric acid and once in methanol prior to drying and scintillation counting.
(§2) The kinase assays described herein were performed at Millipore UK Ltd, Dundee Technology Park, Dundee DD2 1SW, UK.

Data set [1] can be described thus: Pharmacokinetics after intravenous and oral administration in rats. The conditions noted are these: for clearance (CL) / AUC(0-t) / half-life / Vd: iv dosing, 1 mg/kg; for F: oral bioavailability; for AUC(0-t) / half-life / Vd: rat, plasma; for Vd: read-out: Vss. The data set is classed as in vivo. As to the method: The LC/MS/MS system used in the analysis consists of an Agilent 1200 Series vacuum degasser, binary pump, well-plate autosampler, thermostatted column compartment, the Agilent G6430 Triple Quadrupole Mass Spectrometer with an electrosprayionization (ESI) source. Quantitative analysis was carried out using MRM mode. The parameters for MRM transitions are in the Table A.
An Agilent XDB-C18, 2.1×30 mm, 3.5 μM column was used for the analysis. 5 μL of the samples were injected. Analysis condition: The mobile phase was 0.1% formic acid in water (A) and 0.1% formic acid in methanol (B). The flow rate was 0.4 mL/min. And the gradient of Mobile phase was in the Table B.
Alternatively, an Agilent 6330 series LC/MS/MS spectrometer equipped with G1312A binary pumps, a G1367A autosampler and a G1314C UV detector were used in the analysis. An ESI source was used on the LC/MS/MS spectrometer. The analysis was done in positive ion mode as appropriate and the MRM transition for each analyte was optimized using standard solution. A Capcell MP-C18 100×4.6 mm I.D., […] column (Phenomenex, Torrance, Calif., USA) was used during the analysis. The mobile phase was 5 mM ammonia acetate, 0.1% MeOH in water (A): 5 mM ammonia acetate, 0.1% MeOH in acetonitrile (B) (70:30, v/v). The flow rate was 0.6 mL/min. Column was maintained at ambient temperature. 20 μL of the samples were injected.
The compounds disclosed herein are assessed in pharmacokinetic studies in mice, rats, dogs or monkeys. The compounds are administered as a water solution, 2% HPMC+1% TWEEN®80 in water solution, 5% DMSO+5% solutol in saline, 4% MC suspension or capsule. For the intravenous administration, the animals are generally given at 1 or 2 mg/kg dose. For the oral (p.o.) dosing, mice and rats are generally given 5 or 10 mg/kg dose, and dogs and monkeys are generally given 10 mg/kg dose. The blood samples (0.3 mL) are drawn at 0.25, 0.5, 1.0, 2.0, 3.0, 4.0, 6.0, 8.0, 12 and 24 h time points or 0.083, 0.25, 0.5, 1.0, 2.0, 4.0, 6.0, 8.0 and 24 h time points and centrifuged at 3,000 or 4000 rpm for 2 to 10 min. The plasma solutions are collected, and stored at −20° C. or −70° C. until analyzed by LC/MS/MS as described above.

Data set [2] can be described thus: Compound stability in human liver microsomes. The class given is in vitro ADME. The conditions noted are these: for half-life: pH 7.4, 37° C., NADPH, read-out: Human T1/2; for CLint scaled: pH 7.4, in vivo CLint extrapolated. The method, then:
(§3) Human or rat liver microsomes incubations were conducted in duplicate in polypropylene tubes. The typical incubation mixtures consisted of human or rat liver microsomes (0.5 mg protein/mL), compounds of interest (5 μM) and NADPH (1.0 mM) in a total volume of 200 μL potassium phosphate buffer (PBS, 100 mM, pH 7.4). Compounds were dissolved in DMSO and diluted with PBS such that the final concentration of DMSO was 0.05%. The enzymatic reactions were commenced with the addition of protein after a 3-min preincubation and incubated in a water bath open to the air at 37° C. Reactions were terminated at various time points (0, 5, 10, 15, 30, 60 min) by adding equal volume of ice-cold acetonitrile. The samples were stored at −80° C. until LC/MS/MS assays.
(§4) The concentrations of compounds in the incubation mixtures of human or rat liver microsomes were determined by a LC/MS/MS method. The ranges of the linearity in the concentration range were determined for each tested compounds.
(§5) A parallel incubation was performed using denatured microsomes as the negative control, and reactions were terminated at various time points (0, 15, 60 min) after incubation at 37° C.
(§6) Verapamil (1 μM) was selected as the positive control, and reactions were terminated at various time points (0, 5, 10, 15, 30, 60 min) after incubation at 37° C. Both positive and negative control samples were included in each assay to ensure the integrity of the microsomal incubation system.
(§7) In addition, the stability date of compound in human and rat liver microsomes was also obtained through the following method. Human or rat liver microsomes incubations were conducted in duplicate in polypropylene tubes. The typical incubation mixtures consisted of human or rat liver microsomes (0.5 mg protein/mL), compounds of interest (1.5 μM) and EDTA (1.0 mM) in a total volume of 30 μL potassium phosphate buffer (PBS, 100 mM, pH 7.4). Compounds were dissolved in DMSO and diluted with PBS such that the final concentration of DMSO was 0.2%. The enzymatic reactions were commenced with the addition of 15 μL NADPH (final concentration: 2 mM) after a 10-min preincubation and incubated in a water bath open to the air at 37° C. Reactions were terminated at various time points (0, 15, 30, 60 min) by adding 135 μL acetonitrile (contain IS). The samples were centrifuged at 4000 rpm for 10 min to remove protein, the supernatant was stored at −80° C. until LC/MS/MS assays. Ketanserin (1 μM) was selected as the positive control, and reactions were terminated at various time points (0, 15, 30, 60 min) after incubation at 37° C. Both positive and negative control samples were included in each assay to ensure the integrity of the microsomal incubation system.
(§8) The concentrations of compounds in human or rat liver microsome incubations were plotted as a percentage of the relevant zero time point control for each reaction. The in vivo CLint were extrapolated (ref.: Naritomi, Y.; Terashita, S.; Kimura, S.; Suzuki, A.; Kagayama, A.; and Sugiyama, Y.; Prediction of human hepatic clearance from in vivo animal experiments and in vitro metabolic studies with liver microsomes from animals and humans. Drug Metab. Dispos., 2001, 29: 1316-1324).

A short description of data set [3]: Compound stability in rat liver microsomes. To be noted: for half-life: pH 7.4, 37° C., NADPH, read-out: Rat T1/2; for CLint scaled: pH 7.4, in vivo CLint extrapolated. The data set is classed as in vitro ADME. As to the method:
as §3, §4, §5, §6, §7, §8

The target of another data set is T2, JAK1 (h) (Homo sapiens, UniProt P23458).
T2 construct: purchased Millipore UK Ltd (contract assay service)
In words: JAK1 (h) kinase assay. The data set is classed as biochemical. The method, then: as §1
JAK1 (h) is incubated with 20 mM Tris/HCl pH 7.5, 0.2 mM EDTA, 500 μM GEEPLYWSFPAKKK, 10 mM MgAcetate and [γ-^33P-ATP] (specific activity approx. 500 cpm/pmol, concentration as required). The reaction is initiated by the addition of the MgATP mix. After incubation for 40 minutes at room temperature, the reaction is stopped by the addition of 3% phosphoric acid solution. 10 μL of the reaction is then spotted onto a P30 filtermat and washed three times for 5 minutes in 75 mM phosphoric acid and once in methanol prior to drying and scintillation counting.
as §2

T2 sequence (P23458 whole entry): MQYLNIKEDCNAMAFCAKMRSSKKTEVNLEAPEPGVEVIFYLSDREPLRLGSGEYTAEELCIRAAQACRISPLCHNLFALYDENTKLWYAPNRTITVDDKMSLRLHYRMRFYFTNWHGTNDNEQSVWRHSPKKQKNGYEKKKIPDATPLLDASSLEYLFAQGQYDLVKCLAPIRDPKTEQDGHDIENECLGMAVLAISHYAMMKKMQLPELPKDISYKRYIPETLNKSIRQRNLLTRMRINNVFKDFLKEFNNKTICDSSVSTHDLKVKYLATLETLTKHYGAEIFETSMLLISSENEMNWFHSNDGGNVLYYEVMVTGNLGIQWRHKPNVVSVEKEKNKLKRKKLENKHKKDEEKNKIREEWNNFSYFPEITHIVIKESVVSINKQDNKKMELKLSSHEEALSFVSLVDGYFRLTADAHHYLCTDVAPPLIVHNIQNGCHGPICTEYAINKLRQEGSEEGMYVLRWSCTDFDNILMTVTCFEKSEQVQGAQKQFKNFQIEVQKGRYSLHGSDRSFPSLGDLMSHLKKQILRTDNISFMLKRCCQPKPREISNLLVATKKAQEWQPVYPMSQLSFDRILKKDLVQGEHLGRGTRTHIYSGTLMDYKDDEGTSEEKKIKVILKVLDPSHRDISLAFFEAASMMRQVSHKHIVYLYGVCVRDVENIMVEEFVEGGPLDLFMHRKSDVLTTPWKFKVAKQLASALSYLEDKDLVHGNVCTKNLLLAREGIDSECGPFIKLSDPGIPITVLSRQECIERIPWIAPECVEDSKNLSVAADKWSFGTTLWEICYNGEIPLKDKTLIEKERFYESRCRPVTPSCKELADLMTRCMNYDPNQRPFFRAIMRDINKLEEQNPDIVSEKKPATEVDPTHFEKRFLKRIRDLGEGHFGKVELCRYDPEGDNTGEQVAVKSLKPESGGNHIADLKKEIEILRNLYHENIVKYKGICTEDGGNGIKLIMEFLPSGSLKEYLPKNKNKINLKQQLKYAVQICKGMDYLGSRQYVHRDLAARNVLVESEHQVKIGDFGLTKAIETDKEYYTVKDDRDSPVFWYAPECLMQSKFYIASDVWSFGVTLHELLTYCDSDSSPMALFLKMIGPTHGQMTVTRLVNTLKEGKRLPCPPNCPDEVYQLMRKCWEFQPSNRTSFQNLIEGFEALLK
T1 sequence (O60674 whole entry): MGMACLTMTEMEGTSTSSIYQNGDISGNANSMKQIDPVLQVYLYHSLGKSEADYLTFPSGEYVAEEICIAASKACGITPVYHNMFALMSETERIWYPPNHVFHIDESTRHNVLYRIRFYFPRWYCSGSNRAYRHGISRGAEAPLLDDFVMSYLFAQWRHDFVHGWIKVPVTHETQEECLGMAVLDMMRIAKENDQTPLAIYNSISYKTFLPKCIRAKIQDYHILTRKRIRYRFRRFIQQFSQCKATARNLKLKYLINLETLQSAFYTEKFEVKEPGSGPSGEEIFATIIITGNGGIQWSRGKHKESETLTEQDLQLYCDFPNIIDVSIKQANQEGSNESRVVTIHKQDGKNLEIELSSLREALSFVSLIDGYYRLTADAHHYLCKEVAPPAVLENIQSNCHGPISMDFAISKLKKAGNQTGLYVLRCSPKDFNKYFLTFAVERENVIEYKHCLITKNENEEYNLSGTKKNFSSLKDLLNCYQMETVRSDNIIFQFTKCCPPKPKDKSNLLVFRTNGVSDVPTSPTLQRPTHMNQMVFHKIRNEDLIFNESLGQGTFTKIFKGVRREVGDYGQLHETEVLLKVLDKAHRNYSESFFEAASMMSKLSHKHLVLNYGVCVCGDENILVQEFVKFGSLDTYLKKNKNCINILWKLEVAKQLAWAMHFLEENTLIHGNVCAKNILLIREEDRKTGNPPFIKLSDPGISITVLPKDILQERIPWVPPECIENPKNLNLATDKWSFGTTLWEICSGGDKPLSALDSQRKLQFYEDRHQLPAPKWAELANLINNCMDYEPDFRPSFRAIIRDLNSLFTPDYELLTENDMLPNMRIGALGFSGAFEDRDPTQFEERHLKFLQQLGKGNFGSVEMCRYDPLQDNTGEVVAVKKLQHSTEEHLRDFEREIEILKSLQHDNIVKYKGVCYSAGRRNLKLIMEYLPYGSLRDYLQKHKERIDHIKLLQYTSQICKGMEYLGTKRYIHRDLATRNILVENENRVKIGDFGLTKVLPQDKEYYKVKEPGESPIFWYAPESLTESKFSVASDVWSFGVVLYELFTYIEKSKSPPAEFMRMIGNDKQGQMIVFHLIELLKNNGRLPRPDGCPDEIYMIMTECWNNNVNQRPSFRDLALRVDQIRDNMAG

`Cc1cc(Nc2ncc(Cl)c(NC3CCN(c4ccc(C#N)cn4)CC3)n2)n[nH]1` [Ex. 3]: at JAK2 (h), the IC50 was found to be 2 nM. In addition, in data set [1], the “clearance (CL)” value was 17.2 mL/min/kg, the F was determined as 112.01%, the AUC(0-t) came to 1060 ng·h/mL and the half-life is 56.4 min. The Vd in data set [1] worked out at 0.94 L/kg. Moreover, in data set [2], the half-life is 163 min and the CLint scaled was 10.7 mL/min/kg. Also, in data set [3], the half-life was 74.5 min and the CLint scaled was 33.3 mL/min/kg. The IC50 against JAK1 (h) is under 0.3 nM.

Turning to `Cn1cc2ccc(Nc3ncc(Cl)c(NC4CCN(c5ccc(C#N)nn5)CC4)n3)cc2n1` [Ex. 25], in data set [1], the “clearance (CL)” value worked out at 14 mL/min/kg, the F stood at 62.8%, the AUC(0-t) worked out at 1220 ng·h/mL and the half-life is 28.2 min. Further, the Vd in data set [1] was 0.33 L/kg. Besides, in data set [2], the half-life came out at 25.7 min and the CLint scaled is 67.6 mL/min/kg. Further, in data set [3], the half-life came to 20.8 min and the CLint scaled was 120 mL/min/kg. Further, the IC50 against JAK1 (h) is under 0.3 nM.

As to `Cc1c2ccc(Nc3ncc(Cl)c(N(C)C4CCN(c5ccc(C#N)cn5)CC4)n3)cc2nn1C` [Ex. 8, 6-(4-((5-chloro-2-((2,3-dimethyl-2H-indazol-6-yl)amino)pyrimidin-4-yl) (methyl)amino)piperidin-1-yl)nicotinonitrile], 3 nM corresponded to half-maximal inhibition against JAK1 (h) (IC50).

`Cc1nn(C)cc1Nc1ncc(Cl)c(N(C)C2CCN(c3ccc(C#N)cn3)CC2)n1` [Ex. 14, 6-(4-((5-chloro-2-((1,3-dimethyl-1H-pyrazol-4-yl)amino)pyrimidin-4-yl) (methyl)amino)piperidin-1-yl)nicotinonitrile] came in with an IC50 against JAK2 (h) of 175 nM. Also, in data set [1], the “clearance (CL)” value came to 61.2 mL/min/kg, the F was determined as 107.1%, the area under the curve AUC(0-t) was 273 ng·h/mL and the half-life is 29.4 min. In addition, the Vd in data set [1] worked out at 1.19 L/kg. Also, in data set [2], the half-life stood at 7.99 min and the CLint scaled was 217 mL/min/kg. Also, in data set [3], the half-life is 1.71 min and the intrinsic clearance (CLint scaled) was 1450 mL/min/kg. Besides, the half-maximal inhibitory concentration (IC50) at JAK1 (h) amounted to 1 nM.

Consider `Cc1cc(Nc2ncc(Cl)c(NC3CCN(c4ccc(C#N)cn4)CC3)n2)nn1C` [Ex. 2], for which the concentration for half-maximal inhibition (IC50) against JAK2 (h) is 3 nM; at JAK1 (h), 0.6 nM. For the same molecule, the half-life is 36.3 min in data set [2] and 17.7 min in data set [3]. Besides, the values for the intrinsic clearance (CLint scaled) in data set [2] and in data set [3] were 47.9 mL/min/kg and 140 mL/min/kg, respectively.

Take `CN(c1nc(Nc2cnn(C)c2)ncc1Cl)C1CCN(c2ccc(C#N)cn2)C1` (centres unmarked) [Ex. 7, 6-(3-((5-chloro-2-((1-methyl-1H-pyrazol-4-yl)amino)pyrimidin-4-yl) (methyl)amino)pyrrolidin-1-yl)nicotinonitrile]: in data set [1], the “clearance (CL)” value was found to be 37.7 mL/min/kg, the F was determined as 67.1%, the AUC(0-t) worked out at 445 ng·h/mL and the half-life was 20.4 min. Besides, the Vd in data set [1] worked out at 0.86 L/kg. Moreover, in data set [2], the half-life worked out at 14.5 min and the intrinsic clearance (CLint scaled) is 120 mL/min/kg. In data set [3], the half-life is 9.2 min and the CLint scaled was 270 mL/min/kg. The molecule further showed a concentration for half-maximal inhibition (IC50) against JAK1 (h) of 22 nM.

For `Cc1cnc(Nc2cnn(C)c2)nc1N(C)C1CCN(c2ccc(C#N)cn2)CC1` [Ex. 6, 6-(4-(methyl(5-methyl-2-((1-methyl-1H-pyrazol-4-yl)amino)pyrimidin-4-yl)amino)piperidin-1-yl)nicotinonitrile], in data set [1], the “clearance (CL)” value is 20.2 mL/min/kg, the F turned out to be 22.2%, the exposure AUC(0-t) was found to be 1360 ng·h/mL and the half-life was 35.9 min. In addition, in data set [1], the Vd came to 0.56 L/kg. Further, in data set [2], the half-life is 15.6 min and the intrinsic clearance (CLint scaled) is 111 mL/min/kg. For the same molecule, in data set [3], the half-life turned out to be 4.3 min and the CLint scaled is 577 mL/min/kg. This molecule also registered a 50% inhibitory concentration (IC50) on JAK1 (h) of 2 nM.

As to `Cn1nc(Nc2ncc(Cl)c(NC3CCN(c4ccc(C#N)cn4)CC3)n2)cc1C(C)(C)O` [Ex. 26, 6-(4-((5-chloro-2-((5-(2-hydroxypropan-2-yl)-1-methyl-1H-pyrazol-3-yl)amino)pyrimidin-4-yl)amino)piperidin-1-yl)nicotinonitrile], the IC50 on JAK2 (h) was 0.8 nM; against JAK1 (h), 1 nM.

Consider `Cc1cc(Nc2ncc(Cl)c(N(C)C3CCN(c4ccc(C#N)cn4)CC3)n2)nn1C` [Ex. 9, 6-(4-((5-chloro-2-((1,5-dimethyl-1H-pyrazol-3-yl)amino)pyrimidin-4-yl) (methyl)amino)piperidin-1-yl)nicotinonitrile], for which, in data set [1], the “clearance (CL)” value worked out at 48.8 mL/min/kg, the F is 45.8%, the AUC(0-t) is 350 ng·h/mL and the half-life is 54 min. Also, the Vd in data set [1] is 2.63 L/kg. Moreover, in data set [2], the half-life turned out to be 17.9 min and the CLint scaled was 96.9 mL/min/kg. Besides, in data set [3], the half-life came to 10.4 min and the intrinsic clearance (CLint scaled) was 240 mL/min/kg. Further, on JAK1 (h), 4 nM corresponded to half-maximal inhibition (IC50).
